Measured values published in PubChem BioAssay AID248 (DTP/NCI, 2004).
Values joined by “and” are separate entries in the source; they are usually repeats but may differ in a detail not shown here. Equal entries are not always repeated. Toxic doses and inconclusive results are not listed.

Test system: L1210 leukemia ip in BDF1 mice, survival T/C
Experiment: NCI In Vivo Anticancer Drug Screen. Data for tumor model L1210 Leukemia (intraperitoneal) in B6D2F1 (BDF1) mice
Details: endpoint: mean survival time, higher = longer survival
How it was run: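 Read-out is survival time, reported as the treated-group measurement over the vehicle-control measurement.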

[1] = dose: 100.0 mg/kg/injection, schedule: Q01DX001 (ip), vehicle: saline
[2] = dose: 200.0 mg/kg/injection, schedule: Q01DX001 (ip), vehicle: saline
[3] = dose: 400.0 mg/kg/injection, schedule: Q01DX001 (ip), vehicle: saline
[4] = dose: 100.0 mg/kg/injection, schedule: Q04DX003 (ip), vehicle: saline with Tween-80
[5] = dose: 200.0 mg/kg/injection, schedule: Q04DX003 (ip), vehicle: saline with Tween-80
[6] = dose: 400.0 mg/kg/injection, schedule: Q04DX003 (ip), vehicle: saline with Tween-80
[7] = dose: 100.0 mg/kg/injection, schedule: Q04DX002 (ip), vehicle: saline
[8] = dose: 100.0 mg/kg/injection, schedule: Q04DX002 (ip), vehicle: saline with Tween-80
[9] = dose: 200.0 mg/kg/injection, schedule: Q04DX002 (ip), vehicle: saline with Tween-80
[10] = dose: 400.0 mg/kg/injection, schedule: Q04DX002 (ip), vehicle: saline with Tween-80
[11] = dose: 25.0 mg/kg/injection, schedule: Q01DX009 (ip), vehicle: water
[12] = dose: 50.0 mg/kg/injection, schedule: Q01DX009 (ip), vehicle: water
[13] = dose: 200.0 mg/kg/injection, schedule: Q04DX002 (ip), vehicle: saline
[14] = dose: 400.0 mg/kg/injection, schedule: Q04DX002 (ip), vehicle: saline
[15] = dose: 100.0 mg/kg/injection, schedule: Q04DX003 (ip), vehicle: Klucel (hydroxypropylcellulose) (HPC)
[16] = dose: 200.0 mg/kg/injection, schedule: Q04DX003 (ip), vehicle: Klucel (hydroxypropylcellulose) (HPC)
[17] = dose: 400.0 mg/kg/injection, schedule: Q04DX003 (ip), vehicle: Klucel (hydroxypropylcellulose) (HPC)
[18] = dose: 100.0 mg/kg/injection, schedule: Q04DX003 (ip), vehicle: saline
[19] = dose: 200.0 mg/kg/injection, schedule: Q04DX003 (ip), vehicle: saline
[20] = dose: 400.0 mg/kg/injection, schedule: Q04DX003 (ip), vehicle: saline
[21] = dose: 100.0 mg/kg/injection, schedule: Q01DX009 (ip), vehicle: saline with Tween-80
[22] = dose: 200.0 mg/kg/injection, schedule: Q01DX009 (ip), vehicle: saline with Tween-80
[23] = dose: 400.0 mg/kg/injection, schedule: Q01DX009 (ip), vehicle: saline with Tween-80
[24] = dose: 100.0 mg/kg/injection, schedule: Q01DX009 (ip), vehicle: Klucel (hydroxypropylcellulose) (HPC)
[25] = dose: 200.0 mg/kg/injection, schedule: Q01DX009 (ip), vehicle: Klucel (hydroxypropylcellulose) (HPC)
[26] = dose: 400.0 mg/kg/injection, schedule: Q01DX009 (ip), vehicle: Klucel (hydroxypropylcellulose) (HPC)

## C=[CH][Pb]([CH]=C)([O]C(=O)C(C)C)[O]C(=O)C(C)C
dose: 5.0 mg/kg/injection, schedule: Q04DX003 (ip), vehicle: saline
  T/C: 104 % of control
dose: 10.0 mg/kg/injection, schedule: Q04DX003 (ip), vehicle: saline
  T/C: 106 % of control
dose: 20.0 mg/kg/injection, schedule: Q04DX003 (ip), vehicle: saline
  T/C: 101 % of control

## O=C(O)CCNC(=S)Nc1ccc(S(=O)(=O)c2ccc(NC(=S)NCCC(=O)O)cc2)cc1
[1]
  T/C: 104 % of control
[2]
  T/C: 98 % of control
[3]
  T/C: 102 % of control

## O=C1N/C(=N\OCCc2ccccc2)CC(NOCCc2ccccc2)N1 (configuration not stated)
[4]
  T/C: 94 % of control
[5]
  T/C: 94 % of control
[6]
  T/C: 97 % of control

## COC1COC(OC)C(OC)C1OC (configuration not stated)
dose: 25.0 mg/kg/injection, schedule: Q04DX002 (ip), vehicle: saline
  T/C: 87 % of control
dose: 50.0 mg/kg/injection, schedule: Q04DX002 (ip), vehicle: saline
  T/C: 104 % of control
[7]
  T/C: 90 % of control

## CC(C)NCC1CCCCO1 (configuration not stated)
dose: 55.0 mg/kg/injection, schedule: Q01DX Z (ip), vehicle: methylcellulose (MC)
  T/C: 91 % of control
dose: 83.0 mg/kg/injection, schedule: Q01DX Z (ip), vehicle: methylcellulose (MC)
  T/C: 88 % of control
dose: 125.0 mg/kg/injection, schedule: Q01DX Z (ip), vehicle: methylcellulose (MC)
  T/C: 100 % of control

## CC12CCC(=O)C=C1CCC1C2CCC2(C)C(OC(=O)c3ccc(N)cc3)CCC12 (configuration not stated)
[8]
  T/C: 94 % of control
[9]
  T/C: 91 % of control
[10]
  T/C: 94 % of control

## Brc1cnc[nH]1
[11]
  T/C: 97 % of control
[12]
  T/C: 90 % of control
dose: 100.0 mg/kg/injection, schedule: Q01DX009 (ip), vehicle: water
  T/C: 102 % of control
[7]
  T/C: 100 % of control
[13]
  T/C: 95 % of control
dose: 400.0 mg/kg/injection, schedule: Q01DX009 (ip), vehicle: water
  T/C: 98 % of control
[14]
  T/C: 92 % of control

## CC(=O)Nc1c(Cl)cc2c(c1Cl)Cc1cc(N=Cc3ccc4c(c3)OCO4)ccc1-2
dose: 100.0 mg/kg/injection, schedule: Q01DX001 (ip), vehicle: other
  T/C: 91 % of control
dose: 200.0 mg/kg/injection, schedule: Q01DX001 (ip), vehicle: other
  T/C: 101 % of control
dose: 400.0 mg/kg/injection, schedule: Q01DX001 (ip), vehicle: other
  T/C: 100 % of control

## O=C1C=CC(=O)N1Nc1ccccc1
[15]
  T/C: 100 % of control
[16]
  T/C: 102 % of control
[17]
  T/C: 97 % of control

## CC(C)=CCC(=O)NC(=O)NS(=O)(=O)c1ccc(Cl)cc1
[15]
  T/C: 100 % of control
[16]
  T/C: 177 % of control
[17]
  T/C: 94 % of control

## CC(C)=C(Br)c1c(C)cc(C)c(Nc2ccc([N+](=O)[O-])cc2)c1C
[18]
  T/C: 94 % of control
[19]
  T/C: 91 % of control
[20]
  T/C: 91 % of control

## ON=C(CSCc1ccccc1)CSCc1ccccc1
dose: 50.0 mg/kg/injection, schedule: Q01DX009 (ip), vehicle: saline with Tween-80
  T/C: 101 % of control
[21]
  T/C: 101 % of control
[22]
  T/C: 100 % of control
[23]
  T/C: 101 % of control

## CN(C)N=Nc1ccc(C(=O)Oc2ccc3c(c2)CCC2C3CCC3(C)C(=O)CCC23)cc1 (configuration not stated)
[24]
  T/C: 90 % of control
[25]
  T/C: 92 % of control
[26]
  T/C: 88 % of control

## Cc1nc2ccccc2s1
[7]
  T/C: 106 % of control
[13]
  T/C: 98 % of control
[14]
  T/C: 102 % of control

## CC1CCN(C(CC(=O)c2ccccc2)C(=O)c2ccccc2)CC1 (configuration not stated)
dose: 50.0 mg/kg/injection, schedule: Q01DX001 (ip), vehicle: saline
  T/C: 104 % of control
[1]
  T/C: 98 % of control
[2]
  T/C: 102 % of control
[3]
  T/C: 96 % of control

## CCOC(=O)c1c(/N=C/c2ccc3c(c2)OCO3)sc2c1CCCC2
[8]
  T/C: 98 % of control
[9]
  T/C: 95 % of control
[10]
  T/C: 95 % of control

## O=c1cc(O)c2c(O)cc(O)cc2o1
[1]
  T/C: 96 % of control
[2]
  T/C: 96 % of control
[3]
  T/C: 88 % of control

## O=C1C2C=CC=CC1C1C=CC2C1
dose: 100.0 mg/kg/injection, schedule: Q01DX001 (ip), vehicle: saline with Tween-80
  T/C: 93 % of control
dose: 200.0 mg/kg/injection, schedule: Q01DX001 (ip), vehicle: saline with Tween-80
  T/C: 104 % of control
dose: 400.0 mg/kg/injection, schedule: Q01DX001 (ip), vehicle: saline with Tween-80
  T/C: 101 % of control

## Cc1ccc(C)c(NC(=O)OCCOc2ccccc2)c1
[24]
  T/C: 101 % of control
[18]
  T/C: 103 % of control
[25]
  T/C: 90 % of control
[19]
  T/C: 104 % of control
[26]
  T/C: 91 % of control
[20]
  T/C: 101 % of control

## COc1cccc(CC(C(=O)c2ccc(O)cc2)c2ccccc2)c1 (configuration not stated)
[1]
  T/C: 97 % of control
[2]
  T/C: 97 % of control
[3]
  T/C: 101 % of control

## Cc1cc(C)c(NS(=O)(=O)c2ccc([N+](=O)[O-])cc2)c(C)c1
[4]
  T/C: 89 % of control
[5]
  T/C: 93 % of control
[6]
  T/C: 86 % of control

## CCCCCCCCCCCCCCCCOc1ccc(C(SC)=[N+]2CCCCC2)cc1OC
[15]
  T/C: 98 % of control
[16]
  T/C: 102 % of control
[17]
  T/C: 102 % of control

## CCC(=O)Nc1cccc(Cl)c1
[21]
  T/C: 97 % of control
[15]
  T/C: 97 % of control
[22]
  T/C: 103 % of control
[16]
  T/C: 97 % of control
[17]
  T/C: 108 % of control

## O=C(c1ccccc1)c1cc(O)c(O)c(O)c1
dose: 100.0 mg/kg/injection, schedule: Q01DX009 (ip), vehicle: other
  T/C: 99 % of control
[18]
  T/C: 100 % of control
dose: 200.0 mg/kg/injection, schedule: Q01DX009 (ip), vehicle: other
  T/C: 90 % of control
[19]
  T/C: 94 % of control
dose: 400.0 mg/kg/injection, schedule: Q01DX009 (ip), vehicle: other
  T/C: 99 % of control
[20]
  T/C: 100 % of control

## O=c1[nH]c2nccnc2[nH]1
[11]
  T/C: 91 % of control
[12]
  T/C: 107 % of control
dose: 200.0 mg/kg/injection, schedule: Q01DX009 (ip), vehicle: water
  T/C: 96 % of control

## O=C(O)COc1ccccc1Cl
[15]
  T/C: 105 % of control
[16]
  T/C: 104 % of control
[17]
  T/C: 107 % of control

## CC1CN1P(=O)(OCCCl)N1CC1C (configuration not stated)
dose: 20.0 mg/kg/injection, schedule: Q01DX Z (ip), vehicle: saline
  T/C: 97 % of control
dose: 40.0 mg/kg/injection, schedule: Q01DX Z (ip), vehicle: saline
  T/C: 100 % of control
dose: 80.0 mg/kg/injection, schedule: Q01DX Z (ip), vehicle: saline
  T/C: 108 % of control
dose: 160.0 mg/kg/injection, schedule: Q01DX Z (ip), vehicle: saline
  T/C: 117 % of control

## Cc1cccc(C)c1-n1c(=S)[nH]n(-c2ccccc2)c1=S
[21]
  T/C: 91 % of control
[4]
  T/C: 96 % of control
[22]
  T/C: 93 % of control
[5]
  T/C: 96 % of control
[23]
  T/C: 94 % of control
[6]
  T/C: 105 % of control

## COc1ccc(C(=O)c2ccc(C)cc2)cc1
[24]
  T/C: 102 % of control
[15]
  T/C: 95 % of control
[25]
  T/C: 105 % of control
[16]
  T/C: 101 % of control
[26]
  T/C: 96 % of control
[17]
  T/C: 102 % of control

## CC1CN(c2ccc([N+](=O)[O-])cc2)C(C)CN1 (configuration not stated)
dose: 6.25 mg/kg/injection, schedule: Q01DX009 (ip), vehicle: saline
  T/C: 102 % of control
dose: 12.5 mg/kg/injection, schedule: Q01DX009 (ip), vehicle: saline
  T/C: 91 % of control
dose: 25.0 mg/kg/injection, schedule: Q01DX009 (ip), vehicle: saline
  T/C: 102 % of control
dose: 50.0 mg/kg/injection, schedule: Q01DX009 (ip), vehicle: saline
  T/C: 97 % of control and 101 % of control
dose: 100.0 mg/kg/injection, schedule: Q01DX009 (ip), vehicle: saline
  T/C: 88 % of control
[18]
  T/C: 98 % of control
[19]
  T/C: 100 % of control

## CCC(C#N)C1C=CCCC1 (configuration not stated)
dose: 75.0 mg/kg/injection, schedule: Q01DX001 (ip), vehicle: other
  T/C: 107 % of control
dose: 150.0 mg/kg/injection, schedule: Q01DX001 (ip), vehicle: other
  T/C: 107 % of control
